# Test results taken from patent US20240307372A1, “COMPOSITIONS AND METHODS TO IMPROVE BENEFIT OF SUBOPTIMALLY ADMINISTERED THERAPEUCTICS FOR THE TREATMENT OF BENIGN AND NEOPLASTIC DISEASES, INFECTIONS, INFLAMMATORY, METABOLIC AND IMMUNOLOGIAL DISEASES” (priority 2023, published 2024).
# pIC50: −log10 of the molar value. Where two headings read alike, the source gives them in different places.
# Key:
# [1] = system: beta-Actin; assay: beta-Actin level in K562 cell extracts by western blot; format: cell-based, human; conditions: K562 cells treated with up to 40 uM
# Protocol: (§1) Briefly, the method to quantitate β-catenin protein by western blot was as follows: Extracts of K562 cells (untreated and treated with various concentrations of tetrandrine) were concentrated to 0.4 ml using Centricon-3 column to yield a protein concentration of approximately 2 mg/ml. Samples were mixed with 5× Laemmli buffer and loaded on 8-16% Tris-Glycine gradient gel, then polyacrylamide gel electrophoresis (PAGE) was run at 85 volts for 100 minutes at 6° C. and proteins were transferred on PVDF membrane at 70 Volts for 85 minutes at 8° C. Membrane was blocked with 5% milk in Tris-buffered Saline containing 0.1% TW-20 (TBST). Membrane was incubated with primary antibody for 18 hours at 4° C. followed by 3 washes, 5 minutes each, with TBST and incubated with secondary antibody in TBST for 2 hours at 25° C. The membrane was washed again with TBST as described above and incubated with ECL-2 substrate for 5 minutes and scanned on Kodak Image Station. After scan, blot was stripped of primary and secondary antibodies and re-probed with anti-beta Actin antibody as described above. Protein bands in WB images were quantitated using Molecular Imaging software pack MIS-4.0 software and tabulated in Excel spreadsheet.
# [2] = system: human breast, colon carcinoma, and hepatoma cell lines; conditions: read-out: IC50 range; cited from earlier work
# [3] = target: hERG (Homo sapiens, UniProt Q12809); assay: hERG inhibition, IonWorks HT electrophysiology in CHO cells stably transfected with hERG; conditions: for pIC50: read-out: hERG IC50, CHO cells stably transfected with hERG, 300 sec contact
# Protocol: The purpose of this study was to evaluate the potential of a test article to inhibit hERG. The experiments are performed on an Ion Works™ HT instrument (Molecular Devices Corporation), which automatically performs electrophysiology measurements in […] single cells simultaneously in aspecialized 384-well plate (PatchPlate). All cell suspensions, buffers and test compound solutions are at room temperature during the experiment. The cells used are Chinese hamster ovary (CHO) cells stably transfected with hERG (cell-line obtained from Cytomyx, UK). A single-cell suspension is prepared in extracellular solution (Dulbecco's phosphate buffered saline with calcium and magnesium pH 7-7.2) and aliquots added automatically to each well of a PatchPlate™. The cells are then positioned over a small hole at the bottom of each well by applying a vacuum beneath the plate to form an electrical seal. The vacuum is applied through a single compartment common to all wells which is filled with intracellular solution (buffered to pH 7.2 with HEPES). The resistance of cach seal is measured via a common ground-electrode in the intracellular compartment and individual electrodes placed into each of the upper wells. Electrical access to the cell is then achieved by circulating a perforating agent, amphotericin, underneath the PatchPlate and then measuring the pre-compound hERG current. An electrode is positioned in the extracellular compartment and a holding potential of −80 mV applied for 15 sec. The hERG channels are then activated by applying a depolarizing step to +40 mV for 5 sec and then clamped at −50 mV for 4 sec to elicit the hERG tail current, before returning to −80 mV for 0.3 sec. Test compound is then added automatically to the upper wells of the PatchPlateTM from a 96-well microtitre plate containing a range of concentrations of each compound. […] The test compound is left in contact with the cells for 300 sec before recording currents using the same voltage-step protocol as in the pre-compound scan. […] Each concentration is tested in 4 replicate wells on the PatchPlate™. […] Post-compound currents are then expressed as a percentage of pre-compound currents and plotted against concentration for each compound (FIG. 8). Testing was conducted by Cyprotex US, LLC, Watertown, MA.
# [4] = system: bcr-abl; assay: TaqMan qPCR assay for bcr-abl and abl in plucked CML colonies; format: cell-based, human; conditions: 10 μM
# Protocol: To determine whether a colony was normal (bcr-abl negative and abl positive) or diseased (bcr-abl and abl positive), a TaqMan®-based qPCR test was used. In order to score the colonies positive or negative, the following scoring strategy was performed. All colonies were assayed in duplicate for each target. If a singleton reaction yielded a Ct then the reaction scored a 1. If no Ct was recorded, a score of 0 was given. From here, we used a logic test to score the colonies into four different categories: bcr-abl and abl, abl only, bcr-abl only or both negative. In order to be placed in a category, a colony must score a 1 in both reactions. However, if a colony only scored a 1 for one out of the two reactions, this colony was removed from the analysis. If a colony scored a 1 for each reaction (both ber-abl and abl) the colony was placed into the ber-abl and abl category, signifying it as a diseased colony. Alternatively, if a colony scored a 1 in only both of the ber-abl reactions or a 1 in only both the abl reactions, the colony was placed in the ber-abl only or abl only category, respectively. If the colony scored a 0 for both targets (bcr-abl and abl) then the colony was placed in the both negative category.
# In total 48 primary colonies and 31 secondary replated colonies were assessed for bcr-abl and abl using qPCR. […] Thirteen secondary colonies treated with Tetrandrine at 10 μM were assessed.
# [5] = target: calmodulin (CaM) (Homo sapiens, UniProt P0DP23); conditions: cited from earlier work
# [6] = system: β-catenin; assay: β-catenin protein level in K562 cell extracts by western blot; format: cell-based, human; conditions: for β-catenin level in K562 cells: 0.1-40 μM, 24 hours
# Protocol: The second portion was to quantitate the levels of β-catenin protein by western blot. TET's ability in an in vitro assay to reduce β-catenin expression was tested in human erythroleukemic (K562) cells. Testing was conducted by Alamo Laboratories, San Antonia, TX.
# as §1
# [7] = Primary colonies, of 17 colonies
# [8] = Secondary colonies, of 10 colonies
# Sequence of hERG (Q12809 whole entry): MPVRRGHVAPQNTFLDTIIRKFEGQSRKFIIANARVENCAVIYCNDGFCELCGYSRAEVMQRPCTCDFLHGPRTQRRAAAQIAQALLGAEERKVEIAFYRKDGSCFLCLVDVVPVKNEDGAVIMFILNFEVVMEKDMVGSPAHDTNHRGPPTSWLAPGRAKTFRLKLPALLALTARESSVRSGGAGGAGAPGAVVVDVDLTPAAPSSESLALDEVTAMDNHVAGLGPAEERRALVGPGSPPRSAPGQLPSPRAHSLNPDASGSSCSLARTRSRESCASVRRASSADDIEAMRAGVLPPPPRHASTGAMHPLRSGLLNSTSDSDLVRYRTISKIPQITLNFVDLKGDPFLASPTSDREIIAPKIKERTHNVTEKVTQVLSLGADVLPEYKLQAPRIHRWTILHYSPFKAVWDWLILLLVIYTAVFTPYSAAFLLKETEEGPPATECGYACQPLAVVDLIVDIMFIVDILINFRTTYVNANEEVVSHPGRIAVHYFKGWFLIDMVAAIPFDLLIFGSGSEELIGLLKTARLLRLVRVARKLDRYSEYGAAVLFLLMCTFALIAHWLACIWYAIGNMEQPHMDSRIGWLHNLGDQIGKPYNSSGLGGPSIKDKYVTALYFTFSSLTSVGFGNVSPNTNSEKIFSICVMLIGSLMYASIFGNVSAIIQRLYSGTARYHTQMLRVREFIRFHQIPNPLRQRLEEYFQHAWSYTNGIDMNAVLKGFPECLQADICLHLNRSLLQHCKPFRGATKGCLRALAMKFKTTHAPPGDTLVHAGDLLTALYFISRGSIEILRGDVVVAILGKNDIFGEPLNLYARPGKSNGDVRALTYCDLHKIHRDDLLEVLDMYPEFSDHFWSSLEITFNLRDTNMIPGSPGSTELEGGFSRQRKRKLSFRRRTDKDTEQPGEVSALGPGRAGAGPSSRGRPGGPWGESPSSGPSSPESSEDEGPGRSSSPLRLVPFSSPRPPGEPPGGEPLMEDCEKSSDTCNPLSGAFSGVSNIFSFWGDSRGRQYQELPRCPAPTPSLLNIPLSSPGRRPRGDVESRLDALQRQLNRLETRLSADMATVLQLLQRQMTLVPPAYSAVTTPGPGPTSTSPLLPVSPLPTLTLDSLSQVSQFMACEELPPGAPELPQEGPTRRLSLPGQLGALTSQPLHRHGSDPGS
substance,measurement,setting,value
"6,6′,7,12-tetramethoxy-2,2′-dimethyl-berbaman [ES-3000]",beta-Actin level (quantitation of protein bands),[1],not affected significantly
same,pIC50,[2],4.98 to 5.82
same,pIC50,[3],5.29
same,pIC50,[3]; listed as TET,5.28
same,plasma level above which QT prolongation might be expected,[3]; subjects,above 249 ng/mL
same,safety margin for cardiac conduction-related toxicity (hERG IC50 versus human Cmax),[3]; utilizing Cmax from previous human clinical experience,13 fold
same,abl only colonies,[4]; Primary colonies,1
same,bcr-abl and abl colonies,[4]; Primary colonies,11
same,bcr-abl only colonies,[4]; Primary colonies,1
same,both negative colonies,[4]; Primary colonies,4
same,colonies abl positive only,[4]; [7],5.8%
same,colonies bcr-abl and abl positive,[4]; [7],65%
same,colonies negative for both targets,[4]; [7],23.5%
same,colonies bcr-abl and abl positive,"[4]; Primary colonies, of 17 colonies, listed as Tetrandrine",64.7%
same,abl only colonies,[4]; Secondary colonies,1
same,bcr-abl and abl colonies,[4]; Secondary colonies,0
same,bcr-abl only colonies,[4]; Secondary colonies,0
same,both negative colonies,[4]; Secondary colonies,9
same,colonies negative for both bcr-abl and abl,[4]; [8],90%
same,colonies positive for abl only,[4]; [8],10%
same,binding to calmodulin (CaM),[5],bind competitively to calmodulin (CaM)
same,β-catenin level in K562 cells,[6]; listed as TET,reduced β-catenin
same,β-catenin level in K562 cells,[6]; listed as Tetrandrine,lowers the β-catenin level in K562 cells in a dose dependent manner
same,β-catenin band in western blot,[6]; K562 cells treated with 0 to 10 uM,A clear β-catenin band was evident
same,β-catenin band in western blot,[6]; K562 cells treated with 20 and 40 uM,a convincing β-catenin band was absent
same,beta-catenin level (quantitation of protein bands),[6]; K562 cells treated with >10 uM,significantly less
